Measured values as given in ChEMBL document CHEMBL1201862, “PubChem BioAssay data set” (2004).
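Method: 48-hour compound exposure of cells in 96-well plates, five concentrations, linear interpolation of endpoints. GI50 = concentration required for 50% inhibition of growth.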 Activity calls are given as the source filed them. No stated cut-off is given here; in the data, active = GI50 up to about 1.1 µM and inactive = higher.

Assays:
Test in all cases: DTP human tumour cell line panel, 48 h
HT-29 = system: HT-29
CCRF-CEM = system: CCRF-CEM
HOP-92 = system: HOP-92
U-251 = system: U-251
SR = system: SR
SK-OV-3 = system: SK-OV-3
NCI-H460 = system: NCI-H460
NCI/ADR-RES = system: NCI/ADR-RES
T47D = system: T47D
HCC 2998 = system: HCC 2998
OVCAR-5 = system: OVCAR-5
RXF 393 = system: RXF 393
DU-145 = system: DU-145
IGROV-1 = system: IGROV-1
OVCAR-3 = system: OVCAR-3
ACHN = system: ACHN
SW-620 = system: SW-620
NCI-H226 = system: NCI-H226
SNB-75 = system: SNB-75
NCI-H522 = system: NCI-H522

Measured: GI50

CCCCc1ccc(Nc2nc(Cl)c3ncn(COCCOC(C)=O)c3n2)cc1
inactive: HT-29 17.3 µM | CCRF-CEM 35.6 µM | HOP-92 2.06 µM | U-251 18.3 µM | SR 21.2 µM | SK-OV-3 19.6 µM | NCI-H460 17.6 µM | NCI/ADR-RES 20 µM | T47D 22.8 µM | HCC 2998 11.9 µM | OVCAR-5 17.9 µM | RXF 393 16.9 µM | DU-145 16 µM | IGROV-1 15.7 µM | OVCAR-3 20.2 µM | ACHN 17.5 µM | SW-620 21.1 µM | NCI-H226 21.5 µM | SNB-75 24.5 µM | NCI-H522 13.6 µM

C/C(=N\O)c1ccc(Nc2c3ccccc3nc3occc23)cc1
active: HT-29 0.199 µM | CCRF-CEM 0.184 µM | U-251 0.333 µM | SR 0.023 µM | SK-OV-3 0.421 µM | NCI-H460 0.2 µM | NCI/ADR-RES 0.115 µM | T47D 0.553 µM | HCC 2998 0.316 µM | RXF 393 0.0352 µM | DU-145 1.05 µM | IGROV-1 0.231 µM | OVCAR-3 0.695 µM | ACHN 0.302 µM | SW-620 0.21 µM | SNB-75 0.662 µM | NCI-H522 0.103 µM
inactive: HOP-92 12.2 µM | OVCAR-5 2.75 µM | NCI-H226 2.99 µM
